Reference: article PMC8264259, “A Novel Ruthenium(II) Complex With Lapachol Induces G2/M Phase Arrest Through Aurora-B Kinase Down-Regulation and ROS-Mediated Apoptosis in Human Prostate Adenocarcinoma Cells” (Frontiers in Oncology, 2021)

What was measured:
[1] = tested on: PC-3 (human prostate adenocarcinoma); assay: Alamar blue cytotoxicity assay, PC-3; format: cell-based; settings: for IC50: PC-3, Alamar blue, 24-h incubation, mean ± S.E.M.
Source text: (§1) Human lung carcinoma (A549, ATCC® CCL-185™), human hepatocellular carcinoma (HepG2, ATCC® HB-8065™), and human breast adenocarcinoma (MDA-MB-231, ATCC® HTB-26™) were obtained from American Type Cell Collection (ATCC). Human melanoma (A-375, BCRJ-0278), Human colorectal adenocarcinoma (Caco-2, BCRJ 0059), human prostate adenocarcinoma (DU-145, BCRJ-0078, and PC-3, BCRJ-0269), human mouth fibroblast (FGH, BCRJ-0089), and human prostate epithelial cells (PNT-2, BCRJ-0366) were obtained from Rio de Janeiro Cells Bank (BCRJ). The cells A549, A-375, Caco-2, DU-145, HepG2, MDA-MB-231, and FGH were cultured in Dulbecco’s Modified Eagle’s Medium (DMEM, Gibco-Invitrogen®), PC-3 and PNT-2 cells were grown in Roswell Park Memorial Institute Medium (RPMI-1640, Gibco-Invitrogen®). Both mediums were supplemented according to the needs of each lineage, as recommended by its cell banks with 2 mM L-glutamine (Gibco-Invitrogen®), 10% or 20% fetal bovine serum (Gibco-Invitrogen®), 1% antibiotic-antimycotic solution (5 mg/ml penicillin, 5 mg/ml streptomycin, and 10 mg/ml neomycin, Gibco-Invitrogen®), and 3.7 g/L of NaHCO3 (Sigma-Aldrich). All cell lines were cultured in flasks at 37°C in 5% CO2 and 96% of relative humidity according to the procedures proposed by ([31]), and a mycoplasma stain kit (Sigma-Aldrich) was used to confirm the use of cells devoid of contamination. The assays were conducted between the third and the seventh-cell passage with sub-cultures every 3 to 4 days to maintain exponential growth. The cell viability was checked using the trypan blue dye exclusion assay for all experiments where over 95% of the cells were viable at the beginning of the tests.
(§2) The in vitro antiproliferative activity was quantified using the Alamar blue® assay, according to the method reported by ([32]). Cells were seeded in 96-well plates for all experiments (1.5 × 10^4 cells/well). After 24 h, the complexes were dissolved in DMSO and added to each well and incubated for 24 h. Dilutions of the complexes were prepared to obtain concentrations ranging from 0.3 to 100 μM. […] DMSO (0.1% v/v) was used as the vehicle control. Following 24 h of incubation, 50 μl of Alamar blue® (resazurin at 0.01% w/v, Sigma-Aldrich) was added to each well, and the plates were incubated, at 37°C, in the dark. Fluorescence reading was performed in a Synergy H1 Fluorescence Spectrophotometer (BioTek®), using excitation and emission filters at wavelengths of 560 and 590 nm, respectively. The fluorescence intensity was measured in arbitrary fluorescence units (AFU) and the AFU of untreated cells (CTL) was considered 100%. The cytotoxic effects of the compounds were estimated in terms of cell proliferation inhibition (%) and expressed as half-maximal inhibitory concentration (IC50). The cell proliferation inhibition percentage of cells exposed to treatments was calculated following: % Inhibition = 100 − (AFU of treated well/AFU of control well) × 100). The IC50 values were calculated from the cell proliferation inhibition percentage by nonlinear regression method using CompusSyn® Software.

[2] = tested on: PNT-2 (human prostate epithelial cells); assay: Alamar blue cytotoxicity assay, PNT-2 non-cancer cells; format: cell-based; settings: 24-h incubation, mean ± S.E.M.
Source text: as §1, §2

[3] = tested on: FGH (human mouth fibroblast); assay: Alamar blue cytotoxicity assay, FGH non-cancer cells; format: cell-based; settings: 24-h incubation, mean ± S.E.M.
Source text: as §1, §2

[4] = Partition coefficient (n-octanol/water), shake-flask method; format: physicochemical; settings: 24 h, 37°C, triplicate
Protocol: The octanol-water partition coefficients (log P) were quantified using the shake-flask method ([30]). Each complex was tested in a mixture of equal volumes of water and n-octanol with continuous shaking for 24 h at 112g and 37°C. Then the samples were centrifuged for 5 min at 10g, and the organic and aqueous phases were separated. The concentration of complex in each phase was measured spectrophotometrically to determine values of […]. The experiments were carried out in triplicate.

DU-145 cells = assay: Cellular ROS/Superoxide detection; format: cell-based, human
Protocol: Total intracellular ROS generation was measured using 2′,7′-dichlorodihydrofluorescein diacetate (H2DCFDA, Sigma-Aldrich), as reported by ([36]). Briefly, DU-145 cells were seeded (1.5 × 10^4 cells/well) into black 96-well plates and maintained to attach at 37°C in 5% CO2. […] After that, cells were labeled with H2DCFDA solution at 5 μM in N,N-dimethylformamide (Sigma-Aldrich). After that, fluorescence intensity was measured in a Synergy H1 Fluorescence Spectrophotometer (BioTek®), at the excitation and emission wavelengths of 495 and 527 nm, respectively. Thereafter, ROS/Superoxide levels were measured using Cellular ROS/Superoxide Detection Assay Kit (Abcam®). Cells were seeded (1.5 × 10^4 cells/well) into black 96-well plates and maintained to attach at 37°C in 5% CO2. After 24 h, cells were treated with complex (2) (0.25, 0.50, 1.0, and 1.5 μM) for 24 h. […] Fluorescence was measured in quadruplicates using a fluorescent microplate reader Synergy H1 (BioTek®) with standard fluorescein (Ex = 488 nm, Em = 520 nm) and rhodamine (Ex = 550 nm, Em = 610 nm) filter sets for ROS and superoxide determination, respectively. […] Cells were labeled as described above, and the ROS levels were measured. […] After 24 h of treatment, the cell viability was determined by Alamar blue® assay as described above.

Row | Compound | IC50 [1] [nM] | Selectivity index (SI) ([1]; SI = IC50[FGH]/IC50[PC-3]) | Selectivity index (SI) ([1]; SI = IC50[PNT-2]/IC50[PC-3]) | IC50 [2] [nM] | IC50 [3] [nM] | log P(o/w) [4] | total ROS levels (DU-145 cells; DU-145, 24 h exposure) | intracellular ROS with ROS scavenger NAC (DU-145 cells; DU-145, cotreatment with 5 mM NAC, 24 h)
1 | CC(C)=CCC1=C([O-])C(=O)c2ccccc2C1=O.F[P-](F)(F)(F)(F)F.[Ru+2].c1ccc(-c2ccccn2)nc1.c1ccc(P(CP(c2ccccc2)c2ccccc2)c2ccccc2)cc1 [complex (1), [Ru(Lap)(dppm)(bipy)]PF6] | 1300 ± 400 | 2.4 | 4.5 | 5900 ± 2100 | 3100 ± 200 | 0.617 ± 0.014 |  | 
2 | CC(C)=CCC1=C([O-])C(=O)c2ccccc2C1=O.F[P-](F)(F)(F)(F)F.[Ru+2].c1ccc(P(CP(c2ccccc2)c2ccccc2)c2ccccc2)cc1.c1cnc2c(c1)ccc1cccnc12 [complex (2), [Ru(Lap)(dppm)(phen)]PF6] | 1100 ± 300 | 2.2 | 6.2 | 6800 ± 1500 | 2500 ± 300 | 0.839 ± 0.007 | significantly higher | inhibited the formation of intracellular ROS
